In patent publication US8680058B2, “Selectively targeted antimicrobial peptides and the use thereof” (priority 2006, dated 2014):
No end group written: not given here.

What was measured:
S. mutans UA159 and comD = test: Binding of fluorescently labeled peptides to S. mutans (fluorescence microscopy); parameters: species or system Streptococcus mutans; details: fluorescently labeled peptide
Text: To determine whether there was a region within the CSPC16 sequence that was responsible for S. mutans-specific binding, we synthesized a series of fluorescently labeled CSPC16 fragments, and analyzed their ability to bind to S. mutans. The following strategies were utilized in dissecting the CSPC16 sequence (Table 2): First, a series of fragments were constructed by generating deletions of 3 or 4 amino acids, from the N to C terminus, across the CSPC16 sequence (C16-1 to C16-5). Peptides lacking larger portions of the C or N termini of CSPC16 were also synthesized (C16-6 to C16-12). Additionally, peptides with Arg to […] (a positive to negative change in charge) (C16-4) or Phe to Gly substitutions (for a general decrease in hydrophobicity) (C16-3), as well as peptides representing a 4-residue Ala scan of the C16 sequence were constructed (C 16-15 to C16-18). […] These peptides include C16 (SEQ ID NO 1), C16-3 (SEQ ID NO 39), C16-4 (SEQ ID NO 40), C16-5 (SEQ ID NO 41), C16-6 (SEQ ID NO 42), C16-11 (SEQ ID NO 47), C16-12 (SEQ ID NO 5), C16-16 (SEQ ID NO 51), C16-17 (SEQ ID NO 52), and C16-18 (SEQ ID NO 53).
(§1) 1.2 Fluorescent labeling of peptides and fluorescence microscopy. Aliquots of CSPC16 (SEQ ID NO 2), CSP-fragment peptides (Table 2), and C16G2 (SEQ ID NO 4) were labeled with carboxyfluorescein (Sigma) as described previously (Eckert et al., 2006). After peptide cleavage but prior to the bacterial labeling assay, fluorescence intensity per μM peptide was checked fluorimetrically (λex=488 nm, λem=520 nm VersaFluor, BioRad) and found to be relatively similar (data not shown). To evaluate the level of peptide binding to bacteria, streptococci from an overnight culture (OD600 of 0.7-1.0) were washed with phosphate buffered saline (1×PBS), diluted 1:2 into 1×PBS, and exposed to peptide (16 μM) for 5 min at 25° C. After incubation with peptide, unbound agent was removed from the bacteria by three cycles of centrifugation (5 min, 16,000×g) and resuspension in 1×PBS. Labeling of oral streptococci was evaluated using brightfield and fluorescence microscopy (Nikon E400) at a 40× magnification. The digital images utilized for the semi-quantitative binding assessment were acquired with the factory-supplied software (SPOT, Diagnostics).

other oral streptococci = test: Binding of fluorescently labeled peptides to other oral streptococci; details: fluorescently labeled peptide
Text: as §1

S. mutans biofilms = test: Single-species biofilm regrowth after peptide exposure, S. mutans; format: cell-based, Streptococcus mutans; details: 25 μM peptide, 1 min exposure
Description: 1.5 Examination of antimicrobial activity against single-species biofilms. To initiate biofilm formation, ˜1×10^7 bacteria per well (from overnight cultures) were seeded in TH medium (100 μL) to a 96-well flat-bottom plate. For all streptococci except S. mutans, the medium was supplemented with 0.5% (w/v) mannose and glucose. S. mutans UA159 biofilms were grown with 0.5% (w/v) sucrose. Plates were then centrifuged briefly to pellet the cells, and bacteria were incubated for 3-4 hours at 37° C. for biofilm formation. After incubation, the supernatant was carefully removed and biofilms were treated with 25 μM peptide in 1×PBS or 1×PBS alone for 1 min. The peptide solution was then removed and 100 μL TH was added to further dilute any remaining peptide. To minimize biofilm loss, cells were briefly centrifuged after TH addition, after which the supernatants were removed and fresh medium plus appropriate sugars were returned. Cells were then incubated anaerobically at 37° C. and biofilm growth was monitored over time by measuring absorbance at OD600 with a microplate spectrophotometer (Benchmark Plus, BioRad).

TFFRLFNRSFTQALGKGGGKNLRIIRKGIHIIKKY-NH2 [Peptide C16G2]
binding to S. mutans (in words) (S. mutans UA159 and comD): could specifically bind to S. mutans | binding to other oral streptococci (other oral streptococci): not to other oral streptococci | biofilm re-growth after treatment (OD600) (S. mutans biofilms): severely inhibited
